*1 amine or outer side, *2 acyl side, *3 side chain or, on linkers, in order; H or OH if unused. Where a SMILES comes first, the peptide text is derived from it. Bridges are numbered along the chain shown (N, C = ends). [ ]: non-standard residue; d: D form. The star is where a group is joined. Phe(3-CF3) = N[C@@H](Cc1cccc(C(F)(F)F)c1)C(=O)O; Ala(morpholin-4-yl) = N[C@@H](CN1CCOCC1)C(=O)O; Phe(4-COOH) = N[C@@H](Cc1ccc(C(=O)O)cc1)C(=O)O; Bip = N[C@@H](Cc1ccc(-c2ccccc2)cc1)C(=O)O; γGlu = O=C(O)[C@H](CCC(=O)[*:2])N[*:1]; Abu(3S-NH2) = C[C@H](N)[C@H](N)C(=O)O; NH(CH2)12COOH = O=C(O)CCCCCCCCCCCCN*; Val(3-OH) = CC(C)(O)[C@H](N)C(=O)O; Cha = N[C@@H](CC1CCCCC1)C(=O)O; Cit = NC(=O)NCCC[C@H](N)C(=O)O; Carboxymethyl = O=C(O)C*; NMeA = CN[C@@H](C)C(=O)O; Dab = NCC[C@H](N)C(=O)O; AEEA = NCCOCCOCC(=O)O

The target of the test is T1, PD-1/PD-L1 interaction (PE-labeled human PD-L1-Ig binding to Jurkat cell line over-expressing human PD-1) (Homo sapiens, UniProt Q15116).
T1 construct: expressed in transfected cells; host or cells: Jurkat
T1 sequence (Q15116 25-288): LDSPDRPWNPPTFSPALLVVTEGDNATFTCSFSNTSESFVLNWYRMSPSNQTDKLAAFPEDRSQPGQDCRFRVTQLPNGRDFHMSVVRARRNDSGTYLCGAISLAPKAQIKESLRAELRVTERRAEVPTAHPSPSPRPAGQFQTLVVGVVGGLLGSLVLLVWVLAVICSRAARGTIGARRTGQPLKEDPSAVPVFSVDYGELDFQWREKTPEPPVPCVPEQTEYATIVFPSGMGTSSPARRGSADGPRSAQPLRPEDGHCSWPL
The test is described as follows: Jurkat-PD-1 Cell Binding High-Content Screening Assay (CBA). To be noted: Jurkat-hPD-1 cells, PE-labeled PD-L1-Ig 20 nM final; read-out: Jurkat HPD1 PDL1 IC50. The gist of the method: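 Compound is added first to the PD-1-expressing Jurkat cells and held 2 h at 37 °C in serum-containing DMEM. The fluorescent PD-L1 fusion follows at 20 nM final for 1 h. Fixed, Hoechst-stained cells are then imaged for bound label.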
Broadly, the IC50 is the concentration needed to halve the response being measured. With `CC(C)C[C@H]1NC(=O)[C@H](C)N(C)C(=O)[C@H](CCC(N)=O)NC(=O)[C@H](Cc2ccc(-c3ccccc3)cc2)NC(=O)[C@H](Cc2ccc(C(=O)O)cc2)NC(=O)[C@H](Cc2cccc(C(F)(F)F)c2)NC(=O)[C@H](CC(=O)O)NC(=O)[C@H](Cc2ccc(OCC(=O)O)cc2)NC(=O)[C@H](CN2CCOCC2)NC(=O)CSC[C@@H](C(=O)N[C@@H](CCN)C(=O)NCCCCCCCCCCCCC(=O)O)NC(=O)[C@H](Cc2c[nH]cn2)NC(=O)[C@H](C(C)(C)O)NC(=O)[C@H](CC2CCCCC2)NC(=O)[C@H](CCN)NC1=O` [Example 1188] ({CH2CO}-[Ala(morpholin-4-yl)]Y(Carboxymethyl)D[Phe(3-CF3)][Phe(4-COOH)][Bip]Q[NMeA][dL][Dab][Cha][Val(3-OH)]HC[Dab]-{NH(CH2)12COOH}; thioether N-14), the 50% inhibitory concentration (IC50) was 20.5 nM.
In the case of `CC(C)C[C@H]1NC(=O)[C@H](C)N(C)C(=O)[C@H](CCC(N)=O)NC(=O)[C@H](Cc2ccc(-c3ccccc3)cc2)NC(=O)[C@H](Cc2ccc(C(=O)O)cc2)NC(=O)[C@H](Cc2cccc(C(F)(F)F)c2)NC(=O)[C@H](CC(=O)O)NC(=O)[C@H](Cc2ccc(OCC(=O)O)cc2)NC(=O)[C@H]([C@H](C)N)NC(=O)CSC[C@@H](C(=O)N[C@@H](CCN)C(=O)NCCCCCCCCCCCCC(=O)O)NC(=O)[C@H](CO)NC(=O)[C@H](C(C)(C)O)NC(=O)[C@H](CC2CCCCC2)NC(=O)[C@H](CCN)NC1=O` [Example 1190] ({CH2CO}-[Abu(3S-NH2)]Y(Carboxymethyl)D[Phe(3-CF3)][Phe(4-COOH)][Bip]Q[NMeA][dL][Dab][Cha][Val(3-OH)]SC[Dab]-{NH(CH2)12COOH}; thioether N-14), the IC50 was 18 nM.
In the case of `CC(=O)NCCCC[C@@H]1NC(=O)[C@H](C(C)(C)O)NC(=O)[C@H](CC2CCCCC2)NC(=O)[C@H](CCN)NC(=O)[C@@H](CC(C)C)NC(=O)[C@H](C)N(C)C(=O)[C@H](CCC(N)=O)NC(=O)[C@H](Cc2ccc(-c3ccccc3)cc2)NC(=O)[C@H](Cc2ccc(C(=O)O)cc2)NC(=O)[C@H](Cc2cccc(C(F)(F)F)c2)NC(=O)[C@H](CC(=O)O)NC(=O)[C@H](Cc2ccc(OCC(=O)O)cc2)NC(=O)[C@H]([C@H](C)N)NC(=O)CSC[C@@H](C(=O)N[C@@H](CCN)C(=O)NCCCCCCCCCCCCC(=O)O)NC1=O` [Example 1191] ({CH2CO}-[Abu(3S-NH2)]Y(Carboxymethyl)D[Phe(3-CF3)][Phe(4-COOH)][Bip]Q[NMeA][dL][Dab][Cha][Val(3-OH)]K(Ac)C[Dab]-{NH(CH2)12COOH}; thioether N-14), the half-maximal inhibitory concentration (IC50) is 7.4 nM.
For the molecule `CC(C)C[C@H]1NC(=O)[C@H](C)N(C)C(=O)[C@H](CCC(N)=O)NC(=O)[C@H](Cc2ccc(-c3ccccc3)cc2)NC(=O)[C@H](Cc2ccc(C(=O)O)cc2)NC(=O)[C@H](Cc2cccc(C(F)(F)F)c2)NC(=O)[C@H](CC(=O)O)NC(=O)[C@H](Cc2ccc(OCC(=O)O)cc2)NC(=O)[C@H]([C@H](C)N)NC(=O)CSC[C@@H](C(=O)N[C@@H](CCN)C(=O)NCCCCCCCCCCCCC(=O)O)NC(=O)[C@H](Cc2c[nH]cn2)NC(=O)[C@H](C(C)(C)O)NC(=O)[C@H](CC2CCCCC2)NC(=O)[C@H](CCN)NC1=O` [Example 1192] ({CH2CO}-[Abu(3S-NH2)]Y(Carboxymethyl)D[Phe(3-CF3)][Phe(4-COOH)][Bip]Q[NMeA][dL][Dab][Cha][Val(3-OH)]HC[Dab]-{NH(CH2)12COOH}; thioether N-14), the half-maximal inhibitory concentration (IC50) was found to be 17.5 nM.
As for `CC(C)C[C@H]1NC(=O)[C@H](C)N(C)C(=O)[C@H](CCCNC(N)=O)NC(=O)[C@H](Cc2ccc(-c3ccccc3)cc2)NC(=O)[C@H](Cc2ccc(C(=O)O)cc2)NC(=O)[C@H](Cc2cccc(C(F)(F)F)c2)NC(=O)[C@H](CC(=O)O)NC(=O)[C@H](Cc2ccc(OCC(=O)O)cc2)NC(=O)[C@H](CN2CCOCC2)NC(=O)CSC[C@@H](C(=O)N[C@@H](CCN)C(=O)NCCCCCCCCCCCCC(=O)O)NC(=O)[C@H](Cc2c[nH]cn2)NC(=O)[C@H](C(C)(C)O)NC(=O)[C@H](CC2CCCCC2)NC(=O)[C@H](CCN)NC1=O` [Example 1193] ({CH2CO}-[Ala(morpholin-4-yl)]Y(Carboxymethyl)D[Phe(3-CF3)][Phe(4-COOH)][Bip][Cit][NMeA][dL][Dab][Cha][Val(3-OH)]HC[Dab]-{NH(CH2)12COOH}; thioether N-14), the IC50 is 15.6 nM.
Take `CC(C)C[C@H]1NC(=O)[C@H](C)N(C)C(=O)[C@H](CCCNC(N)=O)NC(=O)[C@H](Cc2ccc(-c3ccccc3)cc2)NC(=O)[C@H](Cc2ccc(C(=O)O)cc2)NC(=O)[C@H](Cc2cccc(C(F)(F)F)c2)NC(=O)[C@H](CC(=O)O)NC(=O)[C@H](Cc2ccc(OCC(=O)O)cc2)NC(=O)[C@H]([C@H](C)N)NC(=O)CSC[C@@H](C(=O)N[C@@H](CCN)C(=O)NCCCCCCCCCCCCC(=O)O)NC(=O)[C@H](CCC(=O)O)NC(=O)[C@H](C(C)C)NC(=O)[C@H](CC2CCCCC2)NC(=O)[C@H](CCN)NC1=O` [Example 1194] ({CH2CO}-[Abu(3S-NH2)]Y(Carboxymethyl)D[Phe(3-CF3)][Phe(4-COOH)][Bip][Cit][NMeA][dL][Dab][Cha]VEC[Dab]-{NH(CH2)12COOH}; thioether N-14): the half-maximal inhibitory concentration (IC50) came out at 7.9 nM.
For `CC(C)C[C@H]1NC(=O)[C@H](C)N(C)C(=O)[C@H](CCCNC(N)=O)NC(=O)[C@H](Cc2ccc(-c3ccccc3)cc2)NC(=O)[C@H](Cc2ccc(C(=O)O)cc2)NC(=O)[C@H](Cc2cccc(C(F)(F)F)c2)NC(=O)[C@H](CC(=O)O)NC(=O)[C@H](Cc2ccc(OCC(=O)O)cc2)NC(=O)[C@H]([C@H](C)N)NC(=O)CSC[C@@H](C(=O)N[C@@H](CCN)C(=O)NCCCCCCCCCCCCC(=O)O)NC(=O)[C@H](Cc2c[nH]cn2)NC(=O)[C@H](C(C)(C)O)NC(=O)[C@H](CC2CCCCC2)NC(=O)[C@H](CCN)NC1=O` [Example 1197] ({CH2CO}-[Abu(3S-NH2)]Y(Carboxymethyl)D[Phe(3-CF3)][Phe(4-COOH)][Bip][Cit][NMeA][dL][Dab][Cha][Val(3-OH)]HC[Dab]-{NH(CH2)12COOH}; thioether N-14) the value was 18.9 nM; for `CC(C)C[C@H]1NC(=O)[C@H](C)N(C)C(=O)[C@H](Cc2ccc(C(=O)O)cc2)NC(=O)[C@H](Cc2ccc(-c3ccccc3)cc2)NC(=O)[C@H](Cc2ccc(C(=O)O)cc2)NC(=O)[C@H](Cc2cccc(C(F)(F)F)c2)NC(=O)[C@H](CC(=O)O)NC(=O)[C@H](Cc2ccc(OCC(=O)O)cc2)NC(=O)[C@H](CN2CCOCC2)NC(=O)CSC[C@@H](C(=O)N[C@@H](CCN)C(=O)NCCCCCCCCCCCCC(=O)O)NC(=O)[C@H](CCC(=O)O)NC(=O)[C@H](C(C)C)NC(=O)[C@H](CC2CCCCC2)NC(=O)[C@H](CCN)NC1=O` [Example 1198] ({CH2CO}-[Ala(morpholin-4-yl)]Y(Carboxymethyl)D[Phe(3-CF3)][Phe(4-COOH)][Bip][Phe(4-COOH)][NMeA][dL][Dab][Cha]VEC[Dab]-{NH(CH2)12COOH}; thioether N-14), 19.6 nM; for `CC(C)C[C@H]1NC(=O)[C@H](C)N(C)C(=O)[C@H](Cc2ccc(C(=O)O)cc2)NC(=O)[C@H](Cc2ccc(-c3ccccc3)cc2)NC(=O)[C@H](Cc2ccc(C(=O)O)cc2)NC(=O)[C@H](Cc2cccc(C(F)(F)F)c2)NC(=O)[C@H](CC(=O)O)NC(=O)[C@H](Cc2ccc(OCC(=O)O)cc2)NC(=O)[C@H]([C@H](C)N)NC(=O)CSC[C@@H](C(=O)N[C@@H](CCN)C(=O)NCCCCCCCCCCCCC(=O)O)NC(=O)[C@H](CCC(=O)O)NC(=O)[C@H](C(C)C)NC(=O)[C@H](CC2CCCCC2)NC(=O)[C@H](CCN)NC1=O` [Example 1199] ({CH2CO}-[Abu(3S-NH2)]Y(Carboxymethyl)D[Phe(3-CF3)][Phe(4-COOH)][Bip][Phe(4-COOH)][NMeA][dL][Dab][Cha]VEC[Dab]-{NH(CH2)12COOH}; thioether N-14), 18 nM.
For `CC(C)C[C@H]1NC(=O)[C@H](C)N(C)C(=O)[C@H](CCC(N)=O)NC(=O)[C@H](Cc2ccc(-c3ccccc3)cc2)NC(=O)[C@H](Cc2ccc(C(=O)O)cc2)NC(=O)[C@H](Cc2cccc(C(F)(F)F)c2)NC(=O)[C@H](CC(=O)O)NC(=O)[C@H](Cc2ccc(OCC(=O)O)cc2)NC(=O)[C@H]([C@H](C)N)NC(=O)CSC[C@@H](C(=O)N[C@@H](CCN)C(=O)NCCOCCOCC(=O)N[C@@H](CCC(=O)NCCOCCOCC(=O)NCCCCCCCCCCCCC(=O)O)C(=O)O)NC(=O)[C@H](CCC(=O)O)NC(=O)[C@H](C(C)C)NC(=O)[C@H](CC2CCCCC2)NC(=O)[C@H](CCN)NC1=O` [Example 1200] ({CH2CO}-[Abu(3S-NH2)]Y(Carboxymethyl)D[Phe(3-CF3)][Phe(4-COOH)][Bip]Q[NMeA][dL][Dab][Cha]VEC[Dab][AEEA][γGlu][AEEA]-{NH(CH2)12COOH}; thioether N-14) the value was 28.1 nM; for `CC(=O)NCCCC[C@@H]1NC(=O)[C@H](C(C)(C)O)NC(=O)[C@H](CC2CCCCC2)NC(=O)[C@H](CCN)NC(=O)[C@@H](CC(C)C)NC(=O)[C@H](C)N(C)C(=O)[C@H](CCC(N)=O)NC(=O)[C@H](Cc2ccc(-c3ccccc3)cc2)NC(=O)[C@H](Cc2ccc(C(=O)O)cc2)NC(=O)[C@H](Cc2cccc(C(F)(F)F)c2)NC(=O)[C@H](CC(=O)O)NC(=O)[C@H](Cc2ccc(OCC(=O)O)cc2)NC(=O)[C@H]([C@H](C)N)NC(=O)CSC[C@@H](C(=O)N[C@@H](CCN)C(=O)NCCOCCOCC(=O)N[C@@H](CCC(=O)NCCOCCOCC(=O)NCCCCCCCCCCCCC(=O)O)C(=O)O)NC1=O` [Example 1202] ({CH2CO}-[Abu(3S-NH2)]Y(Carboxymethyl)D[Phe(3-CF3)][Phe(4-COOH)][Bip]Q[NMeA][dL][Dab][Cha][Val(3-OH)]K(Ac)C[Dab][AEEA][γGlu][AEEA]-{NH(CH2)12COOH}; thioether N-14), 16 nM.

For the origin of these results see patent US20260070945A1, “MACROCYCLIC IMMUNOMODULATORS” (Bristol-Myers Squibb Company, priority 2022, published 2026).
